Assay results published in PMC10537604, “Development and Assessment of 1,5–Diarylpyrazole/Oxime Hybrids Targeting EGFR and JNK–2 as Antiproliferative Agents: A Comprehensive Study through Synthesis, Molecular Docking, and Evaluation” (Molecules, 2023).

Columns and labels:
[1] = system: human hepatocellular carcinoma cell line HepG2; assay: WST-8 antiproliferative assay, HepG2; type: cell-based; settings: HepG2, 100 µM, WST-8 assay, read-out: Growth Inhibition (GI%) HepG2
[2] = Nitric oxide release, Griess colorimetric method; type: physicochemical; settings: phosphate buffer pH 7.4, N-acetylcysteine
Procedure: For the indirect determination of NO, the Griess colorimetric approach was utilized, which includes spectrophotometry measurements of the stable decomposition products NO2^− and NO3^−. This method requires that NO3^− is first reduced to NO2^− and then NO2^− is determined by the Griess reaction that includes two steps, the first step is a diazotization reaction in which the NO-derived nitrogen agent, dinitrogen trioxide (N2O3), which is produced by the spontaneous oxidation of NO with sulfanilamide to form the diazonium ion, is used. […] In order to evaluate thiol-induced NO generation from the appropriate compounds, including NO-donating oximes 8a–b, 8d–i, and 10a–c, they were incubated in aqueous phosphate buffer of pH 7.4 in the presence of excess N-acetylcysteine, which serves as a source of thiols that are essential for the release of NO from oximes. The signal intensity of the dye is proportional to the amount of NO released. To quantify the amount of NO released, a standard curve was made by measuring the change in absorbance of various concentrations of standard sodium nitrite solutions treated by the same way. […] At the first hour, the amount of nitric oxide released increased in compounds 8i, 8b, and 8h, while the maximum release of nitric oxide occurring in compounds 8b and 8h was at 2 h. Then, the amount of nitic oxide released declined, which may explain the biological importance of oxime moiety as a source of nitric oxide release in comparison with ketone intermediates 7a–j and 9a–c, as shown in the anticancer activity of oxime derivatives.
The nitrite calibration curve in addition to the absorbance of the tested compounds were measured on Shimadzu UV-160, UV-Visible spectrophotometer (Shimadzu, Tokyo, Japan). The tested compounds were prepared as solutions in DMF and diluted with the buffer system until a concentration of 100 mM. N-Acetyl cysteine solution was prepared in a concentration of 500 mM in methanol. Griess reagent consists of 0.1% w/v NED solution in water and sulfanilamide solution (1% w/v of sulfanilamide in 5% w/v phosphoric acid). Nitrite standard solution (0.1 M sodium nitrite in water) stock solution was prepared, from which a dilute solution of 100 μM nitrite solution was prepared by dilution 1 mL of the stock solution to 1000 mL with phosphate buffer of pH 7.4. From this solution, 4 serials 2-fold dilutions were performed to generate different concentrations of the nitrite solution (100.00, 50.00, 25.00, and 12.50 μM) and these concentrations were used for nitrite calibration curve.
Sulfanilamide and NEDD solutions were kept at 25 °C; […] of sulfanilamide solution was added to each dilution of the prepared standard nitrite solution. The mixture was left at 25 °C for 5–10 min protected from light. To this mixture, […] of the NEDD solution was added and the mixture was again left for 5–10 min at 25 °C protected from light. […] A plot of the average absorbance value for each concentration of the nitrite standard solution as a function of “Y” against nitrite concentration as a function of “X” was constructed to generate a standard nitrite calibration curve at pH 7.4.
The amount of NO released from the tested compounds 8a–b, 8d–I, and 10a–c was measured using the Griess colorimetric method either in phosphate buffer of pH 7.4 in the presence of N-acetyl cysteine, which serves as a source of thiols. The amount of NO released from the tested compounds was measured relative to NO released from standard sodium nitrite solution.
Different solutions of the tested compounds 8a–b, 8d–i, and 10a–c in DMF were diluted using phosphate buffer of pH 7.4 till a final concentration of 100 mM (test solutions). To […] of different test solutions, […] of N-acetyl cysteine solution was added and the obtained solution was kept in an incubator at 37 °C (treated solutions). […]

| SMILES | inhibition at 100 µM [1] | Amount of NO Released (mol/mol) 1 h [2] | Amount of NO Released (mol/mol) 2 h [2] | Amount of NO Released (mol/mol) 3 h [2] | Amount of NO Released (mol/mol) 4 h [2] |
| --- | --- | --- | --- | --- | --- |
| COc1ccc(-c2cc(C(=O)Nc3ccc(/C(C)=N/O)cc3)nn2-c2ccc(S(N)(=O)=O)cc2)cc1 [Compound 10b, (E)–N–(4–(1–(Hydroxyimino)ethyl)phenyl)–5–(4–methoxyphenyl)–1–(4–sulfamoylphenyl)–1H–pyrazole–3–carboxamide] | 2% | 0.095 ± 0.035 mol/mol | 0.114 ± 0.046 mol/mol | 0.079 ± 0.031 mol/mol | 0.031 ± 0.018 mol/mol |
| COc1ccc(-c2cc(C(=O)Nc3ccc(/C(C)=N/O)cc3)nn2-c2ccc(S(N)(=O)=O)cc2)cc1OC [Compound 10c, (E)–5–(3,4–Dimethoxyphenyl)–N–(4–(1–(hydroxyimino)ethyl)phenyl)–1–(4–sulfamoyl phenyl)–1H–pyrazole–3–carboxamide] | 52% | 0.075 ± 0.036 mol/mol | 0.151 ± 0.049 mol/mol | 0.114 ± 0.030 mol/mol | 0.081 ± 0.020 mol/mol |
